Experimental data as given in the supplement of paper PMC11208160.

Test: recombinant barcode read abundance after kanamycin selection (control-corrected) (log10(CPM+1)); higher = more efficient recombination; sequences stand for … in AGTGCAGAGAAAATCGGCCAGTTTTCTCTGCCTGCAGTCCGCATGCCGT…AGATTTATGCAGCGGACTGCCTTTCTCCCAAAGTGATAAACCGGACAGTATCATGGACCGGTTTTCCCGGTAATCCGTATTTGCAAGGTTGGTTTCACT; site = the 11-nt target
Summary of the method: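 Recombination efficiency comes from barcode counts at recombinant junctions, converted to counts per million, averaged and corrected against the control. Values appear as log10(CPM+1). They were obtained from a pooled E. coli screen in which each oligo paired a target with an IS621 bridge RNA target-binding loop, and cells were plated in duplicate on chloramphenicol/ampicillin LB agar or on chloramphenicol/ampicillin/kanamycin with 0.1 mM IPTG.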
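Further: IS621 recombinase and bridge RNA in Escherichia coli cells.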

Sequence	recombinant barcode read abundance (log10)
GCTGAGACTTGGGTTCTAACCTGTTGCGT (site CTCTGTCCTCA)	0.237
GCTGAGACTTGGGTTCTAACCTGTTGCGT (site GCTGAGACTAC)	2.04
GCTGAGGCTTGGGTTCTAACCTGTTGCTG (site GCTGAGGCTCA)	1.05
GCTGAGGCTTGGGTTCTAACCTGTTGCTG (site TCTGAGTCTCA)	0.256
GCTGGGTCTTGGGTTCTAACCTGTTGCCT (site GATGGGTCTAG)	0.0435
GCTGGGTCTTGGGTTCTAACCTGTTGCCT (site GCTGGGTCTAG)	0.814
GCTTACCCTTGGGTTCTAACCTGTTGCTA (site GCTTACCCTTA)	0.36
GCTTACCCTTGGGTTCTAACCTGTTGCTA (site TAGCTAGCTAC)	0.0382
GCTTCGGCTTGGGTTCTAACCTGTTGCCT (site GCATCGGCTAG)	0.193
GCTTCGGCTTGGGTTCTAACCTGTTGCCT (site GCCTCGGCTAG)	0.0138
GCTTCGGCTTGGGTTCTAACCTGTTGCCT (site GCGTCGGCTAG)	0.0514
GCTTCGGCTTGGGTTCTAACCTGTTGCCT (site GCTTCGGCTAG)	0.282
GCTTGAACTTGGGTTCTAACCTGTTGCTT (site GCTTGAACTAA)	0.292
GCTTGAACTTGGGTTCTAACCTGTTGCTT (site GGTTGAACTAT)	0.0501
GCTTGGCCTTGGGTTCTAACCTGTTGCCT (site CCTTGGTCTAG)	0.211
GCTTGGCCTTGGGTTCTAACCTGTTGCCT (site GCTTGGCCTAG)	0.188
GCTTGGTCTTGGGTTCTAACCTGTTGCGA (site CTAGCTCCTAA)	0.173
GCTTGGTCTTGGGTTCTAACCTGTTGCGA (site GCTTGGTCTTC)	1.57
GGAAAGACTTGGGTTCTAACCTGTTGCCT (site GGAAAGACTAG)	1.58
GGAAAGACTTGGGTTCTAACCTGTTGCCT (site GGCAAGACTAG)	0.18
GGAAAGACTTGGGTTCTAACCTGTTGCCT (site GGGAAGACTAG)	0.297
GGAAAGACTTGGGTTCTAACCTGTTGCCT (site GGTAAGACTAG)	0.505

Sequence	recombinant barcode read abundance (log10)
GGAAGCTCTTGGGTTCTAACCTGTTGCTT (site GGAAGCTCTAA)	0.591
GGAAGCTCTTGGGTTCTAACCTGTTGCTT (site GTACGCTCTAA)	0.0116
GGAAGGTCTTGGGTTCTAACCTGTTGCAT (site ACGTCCACTTG)	0.0537
GGAAGGTCTTGGGTTCTAACCTGTTGCAT (site GGAAGGTCTAT)	1.98
GGAATGACTTGGGTTCTAACCTGTTGCCT (site GAAATGACTAG)	0.344
GGAATGACTTGGGTTCTAACCTGTTGCCT (site GCAATGACTAG)	0.726
GGAATGACTTGGGTTCTAACCTGTTGCCT (site GGAATGACTAG)	2.02
GGAATGACTTGGGTTCTAACCTGTTGCCT (site GTAATGACTAG)	0.545
GGACCATCTTGGGTTCTAACCTGTTGCCT (site GGACAATCTAG)	0.29
GGACCATCTTGGGTTCTAACCTGTTGCCT (site GGACCATCTAG)	0.915
GGACCATCTTGGGTTCTAACCTGTTGCCT (site GGACGATCTAG)	0.146
GGACCATCTTGGGTTCTAACCTGTTGCCT (site GGACTATCTAG)	0.276
GGACCCTCTTGGGTTCTAACCTGTTGCCT (site AGACCCTCTAG)	1.09
GGACCCTCTTGGGTTCTAACCTGTTGCCT (site CGACCCTCTAG)	0.406
GGACCCTCTTGGGTTCTAACCTGTTGCCT (site GGACCCTCTAG)	1.96
GGACCCTCTTGGGTTCTAACCTGTTGCCT (site TGACCCTCTAG)	0.353
GGACCTCCTTGGGTTCTAACCTGTTGCAT (site GGACCTCCTAA)	0.342
GGACCTCCTTGGGTTCTAACCTGTTGCAT (site GGACCTCCTAC)	0.805
GGACCTCCTTGGGTTCTAACCTGTTGCAT (site GGACCTCCTAG)	0.0883
GGACCTCCTTGGGTTCTAACCTGTTGCAT (site GGACCTCCTAT)	1.96
GGACCTCCTTGGGTTCTAACCTGTTGCGT (site GGACCTCCTAA)	0.503
GGACCTCCTTGGGTTCTAACCTGTTGCGT (site GGACCTCCTAC)	3.05

Sequence	recombinant barcode read abundance (log10)
GGACCTCCTTGGGTTCTAACCTGTTGCGT (site GGACCTCCTAG)	0.272
GGACCTCCTTGGGTTCTAACCTGTTGCGT (site GGACCTCCTAT)	1.71
GGACGATCTTGGGTTCTAACCTGTTGCCT (site GGACAATCTAG)	0.471
GGACGATCTTGGGTTCTAACCTGTTGCCT (site GGACCATCTAG)	0.0164
GGACGATCTTGGGTTCTAACCTGTTGCCT (site GGACGATCTAG)	1.54
GGACGATCTTGGGTTCTAACCTGTTGCCT (site GGACTATCTAG)	0.357
GGACGCGCTTGGGTTCTAACCTGTTGCGG (site GGACGCGCTCC)	2.43
GGACGCGCTTGGGTTCTAACCTGTTGCGG (site GGGCCCGCTCC)	0.075
GGACGGCCTTGGGTTCTAACCTGTTGCCT (site GGACGACCTAG)	0.523
GGACGGCCTTGGGTTCTAACCTGTTGCCT (site GGACGCCCTAG)	0.133
GGACGGCCTTGGGTTCTAACCTGTTGCCT (site GGACGGCCTAG)	1.35
GGACGGCCTTGGGTTCTAACCTGTTGCCT (site GGACGTCCTAG)	0
GGAGAAGCTTGGGTTCTAACCTGTTGCCT (site GGAGAAGCTAG)	2.11
GGAGAAGCTTGGGTTCTAACCTGTTGCCT (site GGAGACGCTAG)	0.569
GGAGAAGCTTGGGTTCTAACCTGTTGCCT (site GGAGAGGCTAG)	1.15
GGAGAAGCTTGGGTTCTAACCTGTTGCCT (site GGAGATGCTAG)	0.158
GGAGCTTCTTGGGTTCTAACCTGTTGCCT (site GGAGCTTCTAG)	1.33
GGAGCTTCTTGGGTTCTAACCTGTTGCCT (site GTACCTTCTAG)	0.256
GGAGGTCCTTGGGTTCTAACCTGTTGCCG (site ACTCAGACTGT)	0.161
GGAGGTCCTTGGGTTCTAACCTGTTGCCG (site GGAGGTCCTCG)	1.79
GGAGTCCCTTGGGTTCTAACCTGTTGCGA (site GGAGTCCCTTC)	2.39
GGAGTCCCTTGGGTTCTAACCTGTTGCGA (site GGATTCCCTTG)	0.0458
